This test deals with T1, human CRHR2b (Homo sapiens, UniProt Q13324).
T1 construct: expressed in transfected cells; host or cells: Chinese Hamster Ovary (CHO) cells, transient transfection
T1 sequence (Q13324 1-438 isoform Q13324-2): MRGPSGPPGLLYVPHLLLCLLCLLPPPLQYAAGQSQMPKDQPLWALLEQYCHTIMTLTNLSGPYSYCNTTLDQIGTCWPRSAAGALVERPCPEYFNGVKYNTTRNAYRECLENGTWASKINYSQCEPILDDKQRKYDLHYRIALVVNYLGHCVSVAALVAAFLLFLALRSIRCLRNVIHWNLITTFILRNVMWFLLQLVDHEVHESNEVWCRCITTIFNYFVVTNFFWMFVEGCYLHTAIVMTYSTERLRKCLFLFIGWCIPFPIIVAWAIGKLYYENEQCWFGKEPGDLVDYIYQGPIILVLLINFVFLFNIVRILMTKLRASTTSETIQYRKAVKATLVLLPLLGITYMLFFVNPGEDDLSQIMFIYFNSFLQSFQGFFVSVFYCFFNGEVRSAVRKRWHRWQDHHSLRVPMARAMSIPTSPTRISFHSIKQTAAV
The experiment in a line: human CRHR2b cell-based cAMP assay. Put shortly: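 ED50 values are means ± SEM over several runs, curve-fitted from cAMP in pmol, calibrated against unlabeled-cAMP standards. Detection was HTRF competition, ratio 665/620 nm, after 30 min agonist exposure at 37 °C.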

Usually EC50 stands for the concentration at which the effect is half-maximal.

Like-named read-outs stand apart in the source and are kept apart here. Starred links: 1 amine or outer side, 2 acyl side, 3 side chain; linkers in the order of their positions; H or OH if unused. Residues, ends and D or L forms follow the SMILES beside them. Groups on a side chain read outwards from the residue. *: point of attachment. C18 diacid = O=C(O)CCCCCCCCCCCCCCCCC(=O)*; γGlu = O=C(O)[C@H](CCC(=O)[*:2])N[*:1]; AEEA = NCCOCCOCC(=O)O

Turning to `CC[C@H](C)[C@H](N)C(=O)N[C@H](C(=O)N[C@@H](CC(C)C)C(=O)N[C@@H](CO)C(=O)N[C@@H](CC(C)C)C(=O)N[C@@H](CC(=O)O)C(=O)N[C@H](C(=O)N1CCC[C@H]1C(=O)N[C@H](C(=O)NCC(=O)N[C@@H](CC(C)C)C(=O)N[C@@H](CC(C)C)C(=O)N[C@@H](CCC(N)=O)C(=O)N[C@H](C(=O)N[C@@H](CC(C)C)C(=O)N[C@@H](CC(C)C)C(=O)N[C@@H](CCCCNC(=O)COCCOCCNC(=O)COCCOCCNC(=O)CC[C@H](NC(=O)CC[C@H](NC(=O)CCCCCCCCCCCCCCCCC(=O)O)C(=O)O)C(=O)O)C(=O)N[C@@H](CCC(N)=O)C(=O)N[C@@H](CCC(=O)O)C(=O)N[C@@H](CCCCN)C(=O)N[C@@H](CCC(N)=O)C(=O)N[C@@H](CCC(=O)O)C(=O)N[C@@H](CCCCN)C(=O)N[C@@H](CCC(=O)O)C(=O)N[C@@H](CCCCN)C(=O)N[C@@H](CCC(N)=O)C(=O)N[C@@H](CCC(N)=O)C(=O)N[C@@H](C)C(=O)N[C@H](C(=O)N[C@@H](CCC(=O)O)C(=O)N[C@@H](CC(N)=O)C(=O)N[C@@H](C)C(=O)N[C@@H](CCC(N)=O)C(=O)N[C@H](C(=O)N[C@@H](CC(C)C)C(=O)N[C@@H](C)C(=O)N[C@@H](CCC(N)=O)C(=O)N[C@H](C(N)=O)C(C)C)[C@@H](C)CC)[C@@H](C)O)[C@@H](C)CC)[C@@H](C)CC)C(C)C)C(C)C` [Compound 53] (H-IVLSLDVPIGLLQILLK([AEEA-AEEA-γGlu-γGlu-C18 diacid])QEKQEKEKQQATENAQILAQV-NH2), the EC50 stood at 4.01 nM.

Take `CC[C@H](C)[C@H](N)C(=O)N[C@H](C(=O)N[C@@H](CC(C)C)C(=O)N[C@@H](CO)C(=O)N[C@@H](CC(C)C)C(=O)N[C@@H](CC(=O)O)C(=O)N[C@H](C(=O)N1CCC[C@H]1C(=O)N[C@H](C(=O)NCC(=O)N[C@@H](CC(C)C)C(=O)N[C@@H](CC(C)C)C(=O)N[C@@H](CCC(N)=O)C(=O)N[C@H](C(=O)N[C@@H](CC(C)C)C(=O)N[C@@H](CC(C)C)C(=O)N[C@@H](CCC(=O)O)C(=O)N[C@@H](CCC(N)=O)C(=O)N[C@@H](CCC(=O)O)C(=O)N[C@@H](CCCCN)C(=O)N[C@@H](CCC(N)=O)C(=O)N[C@@H](CCC(=O)O)C(=O)N[C@@H](CCCCN)C(=O)N[C@@H](CCC(=O)O)C(=O)N[C@@H](CCCCN)C(=O)N[C@@H](CCCCNC(=O)COCCOCCNC(=O)COCCOCCNC(=O)CC[C@H](NC(=O)CC[C@H](NC(=O)CCCCCCCCCCCCCCCCC(=O)O)C(=O)O)C(=O)O)C(=O)N[C@@H](CCC(N)=O)C(=O)N[C@@H](C)C(=O)N[C@H](C(=O)N[C@@H](CCC(=O)O)C(=O)N[C@@H](CC(N)=O)C(=O)N[C@@H](C)C(=O)N[C@@H](CCC(N)=O)C(=O)N[C@H](C(=O)N[C@@H](CC(C)C)C(=O)N[C@@H](C)C(=O)N[C@@H](CCC(N)=O)C(=O)N[C@H](C(N)=O)C(C)C)[C@@H](C)CC)[C@@H](C)O)[C@@H](C)CC)[C@@H](C)CC)C(C)C)C(C)C` [Compound 54] (H-IVLSLDVPIGLLQILLEQEKQEKEKK([AEEA-AEEA-γGlu-γGlu-C18 diacid])QATENAQILAQV-NH2): where the note is “cAMP assay, Table 26, compounds of Example 9, read-out: hCRHR2b Average EC50”, the EC50 worked out at 4.26 nM.
